The RepoRT retention time repository (doi:10.1016/j.jchromb.2020.122105)

What was measured:
Conditions in all cases: stereoisomer not certain
[1] = RP, Waters CORTECS T3, 100 × 2.1 mm, 2.7 µm, 0.3 mL/min, estimated dead time 0.73 min; A: water + 0.1% formic acid, pH 3; B: methanol + 0.1% formic acid, pH 3; gradient (min/%B) 0/0 5/0 25/100 30/100 30.1/0 35/0
[2] = RP, Waters CORTECS T3, 100 × 2.1 mm, 2.7 µm, 0.2 mL/min, estimated dead time 1.1 min; A: water + 0.1% formic acid, pH 3; B: methanol + 0.1% formic acid, pH 3; gradient (min/%B) 0/0 1/0 6/5 30/100 35/100 35.1/0 40/0
[3] = RP, Waters CORTECS T3, 100 × 2.1 mm, 2.7 µm, 0.3 mL/min, estimated dead time 0.73 min; A: water + 0.1% formic acid, pH 3; B: methanol + 0.1% formic acid, pH 3; gradient (min/%B) 0/0 1/0 6/5 30/100 35/100 35.1/0 40/0
[4] = RP, Waters CORTECS T3, 100 × 2.1 mm, 2.7 µm, 0.2 mL/min, estimated dead time 1.1 min; A: water + 0.1% formic acid, pH 3; B: methanol + 0.1% formic acid, pH 3; gradient (min/%B) 0/5 5/5 25/95 25.1/100 35/100 35.1/5 45/5
[5] = RP, Thermo Scientific Hypercarb, 150 × 2.1 mm, 5 µm, 0.1 mL/min, estimated dead time 3.3 min; A: water + 0.1% formic acid, pH 3; B: methanol + 0.1% formic acid, pH 3; gradient (min/%B) 0/5 5/5 20/100 35/100 35.1/5 45/5
[6] = RP, Waters CORTECS T3, 100 × 2.1 mm, 2.7 µm, 0.15 mL/min, estimated dead time 1.5 min; A: water + 0.1% formic acid, pH 3; B: methanol + 0.1% formic acid, pH 3; gradient (min/%B) 0/5 5/5 25/95 25.1/100 35/100 35.1/5 45/5
[7] = RP, Waters ACQUITY UPLC BEH C18, 100 × 2.1 mm, 1.7 µm, 0.2 mL/min, estimated dead time 1.1 min; A: water + 0.1% formic acid, pH 3; B: methanol + 0.1% formic acid, pH 3; gradient (min/%B) 0/5 5/5 25/100 30/100 30.1/5 35/5
[8] = RP, Waters CORTECS T3, 100 × 2.1 mm, 2.7 µm, 0.25 mL/min, estimated dead time 0.88 min; A: water + 0.1% formic acid, pH 3; B: methanol + 0.1% formic acid, pH 3; gradient (min/%B) 0/5 5/5 25/95 25.1/100 35/100 35.1/5 45/5
[9] = RP, Waters CORTECS T3, 100 × 2.1 mm, 2.7 µm, 0.2 mL/min, estimated dead time 1.1 min; A: water + 0.045% formic acid + 0.11% ammonium hydroxide, pH 7; B: methanol; gradient (min/%B) 0/5 5/5 25/95 25.1/100 35/100 35.1/5 45/5
[10] = RP, Waters ACQUITY UPLC BEH C18, 100 × 2.1 mm, 1.7 µm, 0.1 mL/min, estimated dead time 2.2 min; A: water + 0.1% formic acid, pH 3; B: methanol + 0.1% formic acid, pH 3; gradient (min/%B) 0/5 5/5 25/95 25.1/100 35/100 35.1/5 45/5
[11] = as above; remark: listed apart in the source
[12] = as above; remark: listed apart in the source
[13] = RP, Waters ACQUITY UPLC BEH C18, 100 × 2.1 mm, 1.7 µm, 0.2 mL/min, estimated dead time 1.1 min; A: water + 0.025% formic acid + 20 mM ammonium acetate + 0.055% ammonium hydroxide, pH 7; B: methanol; gradient (min/%B) 0/5 5/5 25/100 30/100 30.1/5 35/5
[14] = as above; remark: listed apart in the source
[15] = HILIC, Merck SeQuant ZIC-HILIC, 150 × 2.1 mm, 5 µm, 0.75 mL/min, estimated dead time 0.44 min; A: water + 10 mM ammonium formate, pH 6; B: 5% water + 95% acetonitrile + 10 mM ammonium formate, pH 6; gradient (min/%B) 0/95 5/95 20/57 25/57 30/95 40/95
[16] = HILIC, Merck SeQuant ZIC-HILIC, 150 × 2.1 mm, 5 µm, 0.75 mL/min, estimated dead time 0.44 min; A: water + 0.1% acetic acid + 10 mM ammonium acetate, pH 4; B: 5% water + 95% acetonitrile + 0.1% acetic acid + 10 mM ammonium acetate, pH 4; gradient (min/%B) 0/95 5/95 20/57 25/57 30/95 40/95
[17] = HILIC, Waters XBridge BEH Amide, 100 × 2.1 mm, 2.5 µm, 0.5 mL/min, estimated dead time 0.44 min; A: water + 0.1% acetic acid + 10 mM ammonium acetate, pH 4; B: 5% water + 95% acetonitrile + 0.1% acetic acid + 10 mM ammonium acetate, pH 4; gradient (min/%B) 0/95 5/95 20/57 25/57 30/95 40/95
[18] = HILIC, Thermo Scientific Accucore HILIC, 100 × 2.1 mm, 2.6 µm, 0.5 mL/min, estimated dead time 0.44 min; A: water + 0.1% formic acid + 10 mM ammonium formate, pH 3; B: 5% water + 95% acetonitrile + 0.1% formic acid + 10 mM ammonium formate, pH 3; gradient (min/%B) 0/95 5/95 20/57 25/57 30/95 40/95

LC retention time [1]: 2.61 min | LC retention time [2]: 3.64 min | LC retention time [3]: 2.6 min | LC retention time [4]: 6.98 min | LC retention time [5]: 35.3 min | LC retention time [6]: 3.26 min | LC retention time [7]: 2.36 min | LC retention time [8]: 1.99 min | LC retention time [9]: 3.15 min | LC retention time [10]: 4.62 min | LC retention time [11]: 4.65 min | LC retention time [12]: 2.69 min | LC retention time [13]: 1.74 min | LC retention time [14]: 3.15 min | LC retention time [15]: 1.31 min | LC retention time [16]: 1.25 min | LC retention time [17]: 1.59 min | LC retention time [18]: 1.41 min
SMILES: c1ncc2[nH]cnc2n1 [PURINE]
